Source: the supplement of paper PMC10307832

How the values were obtained:
Assay in all cases: relative viability (nuclei count vs DMSO), 5 days (fraction); higher = more cells survive
[1] = compound: CC(C)C[C@H](NC(=O)[C@H](Cc1ccccc1)NC(=O)c1cnccn1)B(O)O [Bortezomib] + CS(=O)(=O)N1CCN(Cc2cc3nc(-c4cccc5[nH]ncc45)nc(N4CCOCC4)c3s2)CC1 [Pictilisib] (partner 1 µM)
In short: (§1)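 For relative viability, nuclei counts in treated wells were divided by those in vehicle wells. Lung cancer cell lines had been pin-tool dosed in 1536-well plates the day after seeding and cultured for 5 days, then fixed and stained in one step (final 0.05% Triton X-100, 1% formaldehyde, 1 ug/ml Hoechst) and imaged at 4×. Doses were one drug alone or a fixed anchor-drug dose plus five library-drug doses (not always all listed) in √10 steps, and values are duplicate-plate medians.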

[2] = compound: CC1=CC(=NN1)NC2=CC(=NC(=N2)/C=C/C3=CC=CC=C3)N4CCN(CC4)C + Cc1cc(Nc2cc(N3CCN(C)CC3)nc(Sc3ccc(NC(=O)C4CC4)cc3)n2)n[nH]1 [Tozasertib] (partner 0.1 µM)
In short: as §1

[3] = compound: CC1=CC(=NN1)NC2=CC(=NC(=N2)/C=C/C3=CC=CC=C3)N4CCN(CC4)C + O=C(c1cc(Cc2n[nH]c(=O)c3ccccc23)ccc1F)N1CCN(C(=O)C2CC2)CC1 [Olaparib] (partner 8 µM)
In short: as §1

[4] = compound: COC1=CC(c2cc3ccccc3[nH]2)=N/C1=C\c1[nH]c(C)cc1C [Obatoclax] + CS(=O)(=O)CCNCc1ccc(-c2ccc3ncnc(Nc4ccc(OCc5cccc(F)c5)c(Cl)c4)c3c2)o1 [Lapatinib] (partner 2 µM)
In short: as §1

Cell Line: NCI-H650
- relative viability ([1]; first compound 0.000632 µM): 0.695
- relative viability ([1]; first compound 0.002 µM): 0.551
- relative viability ([1]; first compound 0.006325 µM): 0.328
- relative viability ([1]; first compound 0.02 µM): 0.205
- relative viability ([2]; first compound 0.253 µM): 0.822
- relative viability ([2]; first compound 0.8 µM): 0.603
- relative viability ([2]; first compound 2.53 µM): 0.4
- relative viability ([2]; first compound 8 µM): 0.173
- relative viability ([3]; first compound 0.08 µM): 0.376
- relative viability ([3]; first compound 0.253 µM): 0.431
- relative viability ([3]; first compound 0.8 µM): 0.416
- relative viability ([3]; first compound 2.53 µM): 0.344
- relative viability ([3]; first compound 8 µM): 0.136
- relative viability ([4]; first compound 0.01 µM): 1.04
- relative viability ([4]; first compound 0.03162 µM): 0.811
- relative viability ([4]; first compound 0.1 µM): 0.438
- relative viability ([4]; first compound 0.3162 µM): 0.511
- relative viability ([4]; first compound 1 µM): 0.457
